Test system: ob/ob mice
Experiment: Effect of pharmacologic PDE9 inhibition on body weight, food intake and plasma metabolites in ob/ob mice
Assay type: in vivo, mouse
Settings: female ob/ob mice
Method: On Day 1, plasma glucose was determined via retro-orbital blood samples. 25 μL of blood was added to 100 μL of 0.025 percent heparinized-saline in microtubes (Denville Scientific, Inc., Metuchen, N.J.). The tubes were spun at the highest setting in a Beckman Microfuge 12 for 2 minutes. Plasma was collected for plasma glucose and triglyceride determination, as further described below. During the course of the study, body weight and food consumption were assessed, and blood samples were taken at approximately 8 am for plasma glucose and triglyceride measures, as further described below.
Plasma glucose, triglycerides, and fructosamine were measured using the Roche/Hitachi 912 Clinical Chemistry Analyzer (Roche Diagnostics Corp., Indianapolis, Ind.). Plasma cGMP was measured using the BioTrak™ enzyme-immunoassay system (Amersham, Piscataway, N.J.). Plasma insulin was assessed via a similar technique using the Mercodia ELISA Insulin kit supplied by ALPCO (Uppsala, Sweden). All assays were conducted according to each manufacturer's instructions.
Female ob/ob mice obtained from Jackson Laboratories (Bar Harbor, Me.) were used at 6 to 10 weeks of age. Mice were housed five per cage and allowed free access to water and, initially, to D11 mouse chow. Following a one week acclimation period, mice were switched to a powdered diet (Mouse Breeder/Auto-JL K20 mouse chow, PMI Feeds, Inc., St. Louis, Mo.) for three days and allowed to adapt to the diet prior to the start of the PDE9 inhibitor dosing period.
The PDE9 inhibitor compound (Compound A) was administered in powdered mouse chow that was custom ground (Research Diets, Inc., New Brunswick, N.J.) as a compound/chow admixture; compounds were mixed with the chow to achieve consumption of the specified doses ranging from 1-200 mg/kg/day. In addition to a compound-free control group, a group consuming darglitazone (1 mg/kg/day) was also included as a positive control.
Mice were randomly assigned to groups of ten with five mice per cage. Body weight was determined on Day 0 and weekly thereafter. On Day 1, retro-orbital blood samples were obtained and plasma glucose was determined as previously described. On the final day of the study, blood samples were taken for glucose, triglyceride, insulin, and cGMP measurements, as previously described.

CC(C)c1n[nH]c2c(=O)[nH]c(Cc3ccccc3OCCN3CCOCC3)nc12 [Compound A, 3-isopropyl-5-[2-(2-morpholin-4-yl-ethoxy)-benzyl]-1,6-dihydro-pyrazolo[4,3-d]pyrimidin-7-one]
plasma glucose (100 mg/kg/day (FIG. 10)): decreased | plasma triglycerides (100 mg/kg/day (FIG. 11)): decreased | body weight gain (100 mg/kg/day in chow, compared to compound-free control diet or darglitazone-treated diet (FIG. 7)): reduced body weight gain | plasma fructosamine (100 mg/kg/day, Day 16 (FIG. 12)): decreased | food intake (100 mg/kg/day, later stages of the study (FIG. 9)): no effect on food intake | reducing the normal body weight gain (dose effect) (following 2 and 4 days of treatment (FIG. 8A)): dose-dependent effect | reducing food intake (dose effect) (following 2 and 4 days of treatment (FIG. 8B)): dose-dependent effect

— patent publication US20080282364A1, “Phosphodiesterase 9 Inhibition as Treatment for Obesity-Related Conditions” (priority 2003, published 2008)
